The results in this text go back to ChEMBL document CHEMBL1139033, “Design, synthesis, and structure-activity relationship of novel thiophene derivatives for beta-amyloid plaque imaging” (Bioorg Med Chem Lett, 2006).

The target in the assay is Amyloid-beta precursor protein (Homo sapiens, UniProt P05067). Kind of assay: Displacement of [125I]IMPY from beta amyloid plaque in brain homogenates. Format: tissue-based.
Amyloid-beta precursor protein, sequence (P05067 whole entry): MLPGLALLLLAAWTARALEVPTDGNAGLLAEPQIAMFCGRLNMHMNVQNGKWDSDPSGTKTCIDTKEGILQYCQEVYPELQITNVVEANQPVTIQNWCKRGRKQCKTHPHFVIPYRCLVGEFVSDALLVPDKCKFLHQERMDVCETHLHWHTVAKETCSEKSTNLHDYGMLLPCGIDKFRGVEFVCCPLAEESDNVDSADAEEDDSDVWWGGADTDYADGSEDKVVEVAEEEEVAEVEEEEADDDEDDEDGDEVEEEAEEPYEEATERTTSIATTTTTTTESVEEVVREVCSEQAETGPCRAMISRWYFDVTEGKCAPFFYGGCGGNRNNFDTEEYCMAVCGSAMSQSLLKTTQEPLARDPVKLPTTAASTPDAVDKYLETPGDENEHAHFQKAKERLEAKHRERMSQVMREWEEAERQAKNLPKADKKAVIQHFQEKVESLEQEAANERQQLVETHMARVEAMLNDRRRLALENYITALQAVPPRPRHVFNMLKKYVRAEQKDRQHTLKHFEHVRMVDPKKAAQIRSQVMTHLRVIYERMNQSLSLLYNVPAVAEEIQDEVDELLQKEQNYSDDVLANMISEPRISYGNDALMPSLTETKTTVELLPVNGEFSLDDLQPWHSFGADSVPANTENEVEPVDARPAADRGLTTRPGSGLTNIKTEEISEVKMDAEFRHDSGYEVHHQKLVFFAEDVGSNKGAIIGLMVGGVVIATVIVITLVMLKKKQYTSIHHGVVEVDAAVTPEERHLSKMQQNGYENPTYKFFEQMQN

Broadly, the Ki is a measure of affinity in units of concentration, obtained from inhibition or displacement. A lower Ki goes with tighter binding. For the molecule `CNc1ccc(-c2ccc(-c3ccc(O)cc3)s2)cc1`, the Ki is 31.2 nM.
As for `COc1ccc(-c2ccc(-c3ccc([N+](=O)[O-])cc3)s2)cc1`, the affinity corresponds to a Ki of 18.5 nM. This Ki is about 1.7-fold lower than that of the molecule before.
In the case of `COc1ccc(-c2ccc(-c3ccc(OC)cc3)s2)cc1` it was 108 nM; in that of `Oc1ccc(-c2ccc(-c3ccc(NCCF)cc3)s2)cc1`, 3.9 nM.
For `O=[N+]([O-])c1ccc(-c2ccc(-c3ccc([N+](=O)[O-])cc3)s2)cc1`, the Ki amounted to 185 nM.
`Nc1ccc(-c2ccc(-c3ccc(O)cc3)s2)cc1`: the affinity, expressed as Ki, was 9.6 nM. Compared with the last molecule, the Ki is about 19-fold lower.
The molecule `CN(C)c1ccc(-c2ccc(-c3ccc(O)cc3)s2)cc1` yielded a Ki of 7.5 nM.
Then `COc1ccccc1-c1ccc(-c2ccccc2OC)s1`, with 625 nM; and `Oc1ccc(-c2ccc(-c3ccc(O)cc3)s2)cc1`, with 4 nM.
`COc1ccc(-c2ccc(-c3ccc(N(C)C)cc3)s2)cc1` showed a Ki of 500 nM.
Then `COc1ccc(-c2ccc(-c3ccc(O)cc3)s2)cc1`, with 6.1 nM.
As for `COc1ccc(-c2ccc(-c3ccc(NCCF)cc3)s2)cc1`, the Ki worked out at 21.5 nM.
Regarding `Nc1ccc(-c2ccc(-c3ccc(N)cc3)s2)cc1`, affinity was put at a Ki of 6.1 nM.
Then `COc1ccc(-c2ccc(-c3ccc(N)cc3)s2)cc1`, with 5.6 nM; and `CSc1ccc(-c2ccc(-c3ccc(SC)cc3)s2)cc1`, with above 1000 nM.
